Results taken from patent US8030043B2, “β-galactoside-α2,3-sialyltransferase, a gene encoding thereof, and a method for producing thereof” (Japan Tobacco Inc., priority 2005, dated 2011).

What was measured:
[1] = test system: FAJ-N1C0 recombinant β-galactoside-α2,3-sialyltransferase; experiment: Acceptor substrate specificity of recombinant β-galactoside-α2,3-sialyltransferase (mono-, disaccharides); type: biochemical, Vibrio sp.; design: FAJ-N1C0 Sialyltransferase activity Relative activity (%): tested at 42 mM; conditions: 20° C., 14 hours; for FAJ-N1C0 Sialyltransferase activity: Table 16: 1 μmol acceptor, pH 5.0, about 2.5 mU enzyme; for FAJ-N1C0 Sialyltransferase activity Relative activity (%): Table 16: activity toward lactose set to 100
Excerpt: (§1) Cell homogenates prepared from E. coli cells introduced with the third clone of ISH467-N2C0, the first clone of ISH224-N1C0 and the first clone of FAJ-N1C0 were each purified by ion exchange chromatography and hydroxyapatite chromatography to give an electrophoretically single band. The thus purified β-galactoside-α2,3-sialyltransferases were used in the following experiment in order to examine the presence or absence of sialyltransferase activity toward various monosaccharides, disaccharides and trisaccharides.
(§2) A reaction solution (24 μl) was prepared to contain CMP-^14C-NeuAc-containing CMP-NeuAc as a glycosyl donor substrate ([…], final concentration in the reaction solution: […]), any of various glycosyl acceptor substrates dissolved in 20 mM cacodylate buffer (pH 5.0) (1 μmol, final concentration in the reaction solution: 42 mM), sialyltransferase (in an amount as indicated in the footnotes of the tables below) and NaCl (final concentration in the reaction solution: 500 mM), and reacted under conditions as indicated in the footnotes of the tables below. The monosaccharides used as glycosyl acceptor substrates were the following 10 types: methyl-α-D-galactopyranoside (Gal-α-OMe), methyl-(β-D-galactopyranoside (Gal-β-OMe), methyl-α-D-glucopyranoside (Glc-α-OMe), methyl-β-D-glucopyranoside (Glc-β-OMe), methyl-α-D-mannopyranoside (Man-α-OMe), methyl-β-D-mannopyranoside (Man-β-OMe), methyl-α-D-fucopyranoside (Fuc-α-OMe), methyl-β-D-fucopyranoside (Fuc-β-OMe), N-acetylgalactosamine (GalNAc), and N-acetylglucosamine ([…]). The disaccharides used were the following 5 types: lactose (Gal-β1,4-Glc), N-acetyllactosamine (Gal-β1,4-GlcNAc), methyl-β-D-galactopyranosyl-β1,3-N-acetylglucosaminide (Gal-β1,3-GlcNAc-β-OMe), methyl-α-D-galactopyranosyl-α1,3-galactopyranoside (Gal-α-1,3-Gal-α-OMe), and methyl-β-D-galactopyranosyl-β1,3-galactopyranoside (Gal-β1,3-Gal-β-OMe). The trisaccharide used was 2′-fucosyllactose (Fuc-α1,2-Galβ1,4-Glc). It should be noted that the final concentration was set to 8.4 mM for the sugar chains shown in Table 18, i.e., methyl-α-D-galactopyranosyl-α1,3-galactopyranoside (Gal-α1,3-Gal-α-OMe), methyl-β-D-galactopyranosyl-β1,3-galactopyranoside (Gal-β1,3-Gal-β-OMe) and 2′-fucosyllactose (Fuc-α1,2-Gal-β1,4-Glc).
(§3) After completion of the enzymatic reaction, 1.98 ml of 5 mM phosphate buffer (pH 6.8) was added to the reaction solution to stop the enzymatic reaction. Then, the enzymatic reaction solution was diluted with 5 mM phosphate buffer (pH 6.8) and applied in a volume of 2 ml to a AG1−×2 Resin (PO4^3− form, 0.2×2 cm) column. This column was prepared as follows: AG1-x 2 Resin (OH^− form, BIO-RAD) was suspended in 1 M phosphate buffer (pH 6.8), and after 30 minutes, the resin was washed with distilled water and then suspended in distilled water. The eluate (0 to 2 ml) from this column was measured for its radioactivity. The eluate from this column contains the unreacted glycosyl acceptor substrate and the ^14C-NeuAc (N-acetylneuraminic acid)-bound reaction product which was generated by the reaction, but unreacted CMP-14C-NeuAc is still retained on the column. Thus, the radioactivity of ^14C from each sialic acid-containing sugar chain generated as a result of the enzymatic reaction arises exclusively from the reaction product, so that the radioactivity of this fraction can be used to calculate the enzyme activity.
(§4) In the manner described above, the radioactivity of NeuAc transferred to each glycosyl acceptor substrate was measured to calculate the amount of transferred sialic acid.

[2] = test system: α2,3-sialyltransferase derived from strain JT-ISH-467; experiment: Sialic acid transfer to monosaccharides and disaccharides by partially purified α2,3-sialyltransferase (CMP-14C-NeuAc donor, radioactivity of column eluate); type: biochemical, Photobacterium phosphoreum; conditions: 25° C., 4 hours, acceptor 10 μmol (200 mM), CMP-14C-NeuAc 400 nmol, sialyltransferase 0.13 mU, NaCl 500 mM
Procedure: A cell homogenate prepared from the strain JT-ISH-467 was partially purified by ion exchange chromatography, hydroxyapatite chromatography, and gel filtration chromatography. The thus partially purified α2,3-sialyltransferase was used in the following experiment in order to confirm the transfer of sialic acid to various monosaccharides and disaccharides.
The enzymatic reaction was carried out at 25° C. for 4 hours in a reaction solution (24 μl) prepared to contain CMP-^14C-NeuAc as a glycosyl donor substrate (400 nmol (15600 cpm), final concentration in the reaction solution: 16.6 mM), any of various glycosyl acceptor substrates (10 μmol, final concentration in the reaction solution: 200 mM), sialyltransferase (0.13 mU) and NaCl (final concentration in the reaction solution: 500 mM). The monosaccharides and disaccharides used as glycosyl acceptor substrates were the following 6 substances: methyl-α-D-galactopyranoside (Gal-α-OMe), methyl-β-D-galactopyranoside (Gal-β-OMe), N-acetylgalactosamine (GalNAc), lactose (Gal-β1,4-Glc), N-acetyllactosamine (Gal-β1,4-GlcNAc), and methyl-β-D-galactopyranosyl-β-1,3-N-acetylglucosaminide (Gal-β1,3-GlcNAc-β-OMe).
as §3, with “AG1-×2” for “AG1−×2”, “AG1-×2” for “AG1-x 2”, “CMP-^14C-NeuAc” for “CMP-14C-NeuAc”
as §4

[3] = test system: ISH224-N1C0 recombinant β-galactoside-α2,3-sialyltransferase; experiment: Acceptor substrate specificity of recombinant β-galactoside-α2,3-sialyltransferase (mono-, di-, trisaccharides); type: biochemical, Photobacterium sp.
Excerpt: as §1, §2, §3, §4

[4] = test system: ISH467-N2C0 recombinant β-galactoside-α2,3-sialyltransferase; experiment: as above; type: biochemical, Photobacterium phosphoreum
Excerpt: as §1, §2, §3, §4

[5] = Table 16: 1 μmol acceptor, pH 5.0, about 2.5 mU enzyme, 20° C., 14 hours
[6] = Table 16: activity toward lactose set to 100, 20° C., 14 hours
[7] = Table 17: 1 μmol acceptor, pH 5.0, 1.0 mU per reaction, 30° C., 0.5 minutes or 2 minutes
[8] = Table 17: activity toward lactose set to 100, 30° C., 0.5 minutes or 2 minutes
[9] = Table 18: activity toward lactose set to 100, 0.2 μmol acceptor, 30° C., 2 minutes
[10] = Table 17: 1 μmol acceptor, pH 5.0, 2.3 mU per reaction, 30° C., 0.5 minutes or 2 minutes

Row | SMILES | FAJ-N1C0 Sialyltransferase activity [1] [nmol/min] | FAJ-N1C0 Sialyltransferase activity Relative activity (%) [1] [%] | Amount of transferred sialic acid [2] | ISH224-N1C0 Sialyltransferase activity [3, 5] [nmol/min] | ISH224-N1C0 Sialyltransferase activity Relative activity (%) [3, 6] [%] | ISH224-N1C0 Sialyltransferase activity [3, 7] [nmol/min] | ISH224-N1C0 Sialyltransferase activity Relative activity (%) [3, 8] [%] | ISH224-N1C0 Sialyltransferase activity ([3]; Table 18: 0.2 μmol acceptor (8.4 mM), pH 5.0, 1.0 mU per reaction, 30° C., 2 minutes) [nmol/min] | ISH224-N1C0 Sialyltransferase activity Relative activity (%) [3, 9] [%] | ISH467-N2C0 Sialyltransferase activity [4, 5] [nmol/min] | ISH467-N2C0 Sialyltransferase activity Relative activity (%) [4, 6] [%] | ISH467-N2C0 Sialyltransferase activity [4, 10] [nmol/min] | ISH467-N2C0 Sialyltransferase activity Relative activity (%) [4, 8] [%] | ISH467-N2C0 Sialyltransferase activity ([4]; Table 18: 0.2 μmol acceptor (8.4 mM), pH 5.0, 23 mU per reaction, 30° C., 2 minutes) [nmol/min] | ISH467-N2C0 Sialyltransferase activity Relative activity (%) [4, 9] [%] | Amount of transferred sialic acid ([2]; listed as Gal-β1,4-GlcNAc) [nmol]
1 | OC[C@H]1O[C@@H](O[C@H]2[C@H](O)[C@@H](O)C(O)O[C@@H]2CO)[C@H](O)[C@@H](O)[C@H]1O (stereo partly drawn) [Lactose, lactose] | 7.6 | 100 | 57.9 nmol | 8.4 | 100 | 1.03 | 100 | 1.51 | 100 | 7.8 | 100 | 2.29 | 100 | 1.64 | 100 | –
2 | CC(=O)N[C@H]1C(O)O[C@H](CO)[C@@H](O[C@@H]2O[C@H](CO)[C@H](O)[C@H](O)[C@H]2O)[C@@H]1O (stereo partly drawn) [Lactosamine, N-acetyllactosamine] | 9.6 | 127 | highest in amount of transferred sialic acid | 9.7 | 115 | 0.99 | 96 | – | – | 9.2 | 118 | 2.36 | 103 | – | – | 74.9
3 | CC(=O)N[C@H]1C(O)O[C@H](CO)[C@H](O)[C@@H]1O (stereo partly drawn) [N-Acetylgalactosamine, N-acetylgalactosamine] | 4.4 | 58 | 37.8 nmol | 5.8 | 69 | 0.78 | 76 | – | – | 5.4 | 69 | 0.99 | 43 | – | – | –
4 | CO[C@@H]1O[C@H](CO)[C@H](O)[C@H](O)[C@H]1O [Methylβgalactopyranoside, methyl-β-D-galactopyranoside] | 8.7 | 114 | 50.2 nmol | 8.9 | 105 | 3.54 | 343 | – | – | 9.1 | 116 | 5.77 | 251 | – | – | –
5 | CO[C@@H]1O[C@H](CO)[C@@H](O)[C@H](O[C@@H]2O[C@H](CO)[C@H](O)[C@H](O)[C@H]2O)[C@H]1NC(C)=O [methyl-β-D-galactopyranosyl-β1,3-N-acetylglucosaminide] | 9.4 | 124 | 71.1 nmol | 9.4 | 111 | 1.98 | 192 | – | – | 9.6 | 122 | 2.95 | 129 | – | – | –
